Measured values published in patent US20100216886A1, “POLYMORPHS OF N2-(1,1'-BIPHENYL-4-YLCARBONYL)-N1-[2-(4-FLUOROPHENYL)-1,1-DIMETHYLETHYL]-L-ALPHA-GLUTAMINE” (Wyeth, priority 2006, published 2010).
In brackets after ≈: the same amount, converted by molar mass.

How the values were obtained:
CACO-2 [1] = conditions: human, Caco-2, pH 7.4
in vitro = conditions: human, Caco-2, pH 7.4
[2] = Forced degradation study (solution stability); format: physicochemical; conditions: 387 μg/mL with 25% acetonitrile in acid, base, peroxide and water under heat and light stress
Procedure: A forced degradation study was performed to generate potential degradation products and assess stability liabilities.

physchem = experiment: physchem
Procedure: The pH solubility profile was generated first with Sample D containing polymorph Form A, and then with Sample F containing polymorph Form B, in HCl/NaOH solutions. After 24 hour equilibration, suspensions were centrifuged and the supernatants assayed by HPLC.
The solubility data was analyzed as a function of pH using the Henderson-Hasselbach equation:
Solubility=S0·[10^(PH-pKa)+1],
where S0 is the intrinsic solubility of the free acid.

[3] = Second CACO-2 study, propranolol as reference; format: in vitro ADME; conditions: human, Caco-2
Excerpt: (§1) The second CACO-2 study gave somewhat different results (Table 12). Because metoprolol interferes with the LC/MS assay, propranolol, which has a permeability that is […] metoprolol, was used as the FDA calibration compound. The apical pH was controlled at 6 and basolateral pH at pH 7. In addition, verapamil was used as a competitive inhibitor of the Pgp (P-glycoprotein) transporter. The ratios to propranolol were 1.00 and 0.77 with and without verapamil. […] The B→A/A→B ratios were low at 0.3 and 0.3, with and without verapamil, respectively, indicating again no efflux […].

CACO-2 [4] = experiment: Second CACO-2 study, propranolol as reference; format: in vitro ADME; conditions: for Ratio to Propranolol: A → B
Excerpt: as §1

[5] = In situ rat perfusion model, metoprolol as reference; format: in vivo; conditions: rat
Excerpt: The permeability was 18.2 nm/sec, which is higher than the 14.5 nm/sec value obtained for metoprolol (Table 13).

[6] = Solubility in water and toxicology vehicle (animal formulation); format: physicochemical
Procedure: (§2) Solubility is enhanced slightly in the 2% Tween/0.5% methylcellulose toxicology vehicle, ranging from […]. 2% Tween may also increase GI membrane permeability.

[7] = Oral bioavailability in rat; conditions: in vivo, read-out: Oral bioavailability (F %)
Procedure: as §2
(§3) A prolonged absorption phase was observed together with decreasing bioavailability with increasing dose in both animal species. […] However, the absorption at pharmacological doses seemed reasonably complete albeit with delayed Tmax at lower GI when the drug is more soluble.

[8] = Oral bioavailability in dog; conditions: in vivo, read-out: Oral bioavailability (F %)
Procedure: as §2, §3

[9] = Solubility in various solvents at 25° C. and 50° C.; format: physicochemical
[10] = Slurry in water at 50° C. (polymorphic transformation); format: physicochemical; conditions: slurry in water at 50° C. for 12-24 hr
Procedure: Powder XRD patterns comparing the starting material to polymorph pseudo Form A are shown in FIG. 34, and DSC thermograms of both batches at 50° C. are shown in FIG. 35.

[11] = First CACO-2 study, metoprolol as reference; conditions: human; for recovery: Caco-2, pH 7.4, % Recovery, pH 7.4
CACO-2 [12] = experiment: First CACO-2 study, metoprolol as reference; conditions: for Ratio to Metoprolol: pH 7.4

Structure (SMILES): C[C@H]1O[C@@H](O[C@H]2[C@@H](O)C[C@H](O[C@H]3[C@@H](O)C[C@H](O[C@H]4CC[C@@]5(C)[C@H](CC[C@@H]6[C@@H]5C[C@@H](O)[C@]5(C)[C@@H](C7=CC(=O)OC7)CC[C@]65O)C4)O[C@@H]3C)O[C@@H]2C)C[C@H](O)[C@@H]1O [DigoxinS]
- % Recovery (CACO-2 [1]): 117%
- Papp A→B (in vitro): 2.06 ×10⁻⁶ cm/s
- Papp B→A (in vitro): 29.4 ×10⁻⁶ cm/s

Structure (SMILES): CC(C)(Cc1ccc(F)cc1)NC(=O)[C@H](CCC(=O)O)NC(=O)c1ccc(-c2ccccc2)cc1 [Compound (I), N^2-(1,1′-biphenyl-4-ylcarbonyl)-N^1-[2-(4-fluorophenyl)-1,1-dimethylethyl]-L-α-glutamine]
- Forced degradation result [2]: subject to acid and peroxide degradation
- pKa (physchem): 5.3
- solubility at 24 h (physchem; aqueous buffer, thermodynamic from solid, S0 (intrinsic solubility of the free acid)): 4.5 µg/mL (≈ 0.00944 mM)
- Papp A→B ([3]; A → B, apical pH 6, basolateral pH 7, without verapamil): 62.4 ×10⁻⁶ cm/s
- Papp B→A ([3]; B → A, apical pH 6, basolateral pH 7, without verapamil): 18.5 ×10⁻⁶ cm/s
- efflux ratio ([3]; without verapamil, read-out: Ratio of B→A/A→B): 0.3
- Ratio to Propranolol (CACO-2 [4]; plus Verapamil): 0.77
- Ratio to Propranolol (CACO-2 [4]; without verapamil): 1.00
- mean ratio to propranolol (CACO-2 [4]; average of values with and without verapamil): 0.88
- Ratio of B→A/A→B (CACO-2 [4]; plus Verapamil): 0.3
- Permeability classification (CACO-2 [4]; versus propranolol): low permeability
- Ratio of B→A/A→B (CACO-2 [4]; without verapamil): 0.3
- Papp at 20 μg/mL [5]: 1.82 ×10⁻⁶ cm/s
- Permeability classification [5]: high permeability
- Peff × 10^−1 (μm/sec) ([5]; in vivo, 20 μg/mL): 1.82 × 10^−1 μm/sec
- Ratio to Metoprolol ([5]; in vivo, 20 μg/mL): 1.26
- solubility ([6]; 2% Tween/0.5% methylcellulose toxicology vehicle, aqueous with cosolvent or surfactant or cyclodextrin, read-out: Solubility in toxicology vehicle): 220 to 470 µg/mL (≈ 0.462 to 0.986 mM)
- resulting pH ([6]; water): around 5.5
- solubility ([6]; water, pH 5.5, water, read-out: solubility in water): < 100 µg/mL
- bioavailability ([7]; 100 mg/kg): ~100%
- bioavailability ([7]; Tox suspension, 25 mg/kg): 29%
- bioavailability ([8]; Tox suspension, 25 mg/kg): ~100%
- bioavailability ([8]; capsule containing neat drug): 65%
- solubility ([9]; Water, 25° C.): 1600 µg/mL (≈ 3.36 mM)
- solubility ([9]; Water, 50° C.): 1800 µg/mL (≈ 3.78 mM)
- solubility ([9]; organic solvent or mixture, Acetonitrile, 25° C.): 43000 µg/mL (≈ 90.2 mM)
- solubility ([9]; organic solvent or mixture, Acetonitrile, 50° C.): > 133000 µg/mL
- solubility ([9]; organic solvent or mixture, EtAc (ethyl acetate), 25° C.): > 109000 µg/mL
- solubility ([9]; organic solvent or mixture, Ethanol, 25° C.): > 137000 µg/mL
- solubility ([9]; organic solvent or mixture, Heptane, 25° C.): 700 µg/mL (≈ 1.47 mM)
- solubility ([9]; organic solvent or mixture, Isopropyl acetate (IPAc), 25° C.): 76100 µg/mL (≈ 160 mM)
- solubility ([9]; organic solvent or mixture, Isopropyl acetate (IPAc), 50° C.): > 123000 µg/mL
- solubility ([9]; organic solvent or mixture, Isopropyl alcohol (IPA), 25° C.): > 122000 µg/mL
- solubility ([9]; organic solvent or mixture, Toluene, 25° C.): 4300 µg/mL (≈ 9.02 mM)
- solubility ([9]; organic solvent or mixture, Toluene, 50° C.): 15600 µg/mL (≈ 32.7 mM)
- Change of powder XRD pattern or melting point / polymorphic transformation [10]: not observed
- Papp A→B ([11]; Caco-2, pH 7.4): 14.9 ×10⁻⁶ cm/s
- Papp B→A ([11]; Caco-2, pH 7.4): 37.4 ×10⁻⁶ cm/s
- efflux ratio ([11]; Caco-2, pH 7.4): 2.36
- recovery ([11]; A → B): 100%
- recovery ([11]; B → A): 156%
- Ratio to Metoprolol (CACO-2 [12]; A → B): 0.25
- Ratio to Metoprolol (CACO-2 [12]; B → A): 0.59
- Permeability classification (CACO-2 [12]; pH 7.4, versus metoprolol): low permeability
